US20080279961A1, “TELOMERE TARGETING AGENTS AS STEM CELLS DIRECTED TREATMENTS” (priority 2007, published 2008)
Where “and” joins values, the source holds several entries; their conditions need not be identical. Equal entries are not always repeated. Entries after “also recorded” stand apart in the source; their conditions may differ.

Tests used:
hTERT = hTERT immunohistochemistry of xenograft tissue; type: in vivo, human; details: RHPS4 treated UXF1138L xenograft
Method: (§1) Five-micrometer paraffin sections were cut, dewaxed, and antigen retrieval done in citrate buffer (pH 6.0) in the microwave for 30 minutes. Sections were then treated with methanol/3% hydrogen peroxide to remove endogenous peroxidase and blocked with 10% normal goat serum in PBS and stained. PBS was used as washing buffer. Cells were incubated overnight at 4° C. with a monoclonal anti-hTERT antibody (class IgG2a, kappa, Novacastra, Newcastle, UK) diluted 1:40 in PBS. Mouse immunoglobulin G2a isotype control (Santa Cruz) was used as negative control. hTERT-specific immunoperoxidase staining was developed using the DAKO Envision+ system (Envision 3,3V-diaminobenzidine Plus kit mouse, DAKO Cytomation). To enhance contrast, tissues were counterstained with hematoxylin. hTERT-specific staining intensity was documented using a Leica DM4000 microscope and digital camera. Sections were viewed and evaluated by two independent pathologists. Mean numbers of atypical mitoses were counted in control and treated tissues from 3 tumors (4 fields of 250 cells per tumor) for the 3 groups (Burger et al. 2005). Box plots were generated using SigmaPlot version 10 software and statistical significance between treatments calculated in SigmaPlot using the Student T-test.

UXF1138L xenografts = experiment: tumor growth inhibition of subcutaneous xenografts; type: in vivo, nude mice
UXF1138L cells = experiment: human tumor stem cell assay (HTCA)/clonogenic assay; type: cell-based; details: UXF1138L colonies; read-out: IC50 colony growth in the HTCA
Method: (§2) In human tumor stem cell assay (HTCA)/clonogenic assay, single cell suspensions from in vivo studies above were washed in medium and passed through sieves and the resulting single cell suspensions seeded into soft agar (n=3 tumors per group) as described by us before (Fiebig et al., 2004). Single cell suspensions of cell lines were prepared by trypsinization from cells growing as monolayers on plastic. Briefly, 5,000 (HEK293T cells), 10,000 (PC3, MCF-7 and UXF1138L cells) or 50,000 (UXF1138L tumor tissue) vital cells were added to 0.2 ml Iscove's medium/20% fetal bovine serum/0.05% gentamycin containing 0.4% agar and plated on top of a base layer consisting of 0.2 ml medium with 0.75% agar. The next day, the agar layers were fed with Isocve's medium and cultures incubated at 37° C., 7% CO2 for approximately 11 days. Vital colonies were stained with 2-(4-iodophenyl)-3-(4-nitrophenyl)-5-phenyltetrazolium chloride (1 mg/ml) 24 hrs before evaluation, and colonies >70 μm were counted with an automated image analysis system (Omincon FAS IV, BIOSYS GmbH, Karben, Germany). Drug effect was assessed as growth inhibitory concentrations 50 and 70% (IC50, IC70). Methylcellulose was used to grow cord blood stem cells instead of soft agar. The seeding density was 20,000 cells/well. Stem cell growth factor supplemented and optimized methylcellulose (Methocult H4434) was purchased from Stem Cell Technologies (Vancouver, CA). Methylcellulose lacking growth factors was used as negative growth control. Statistical significance between treatment groups was evaluated by using the Student T-test.
(§3) The growth inhibitory activity of RHPS4 in human bulk tumor cells have been compared, by MTT assay, against RHPS4 activity in tumor cells grown as colonies in the clonogenic assay, also termed the human tumor stem cell assay (HTCA) (FIG. 2A-B). HEK293T human embryonic kidney cells grown in the HTCA, and cord blood cells cultured in methylcellulose were also treated with RHPS4 (FIG. 2C). The MTT assay is a 5 day proliferation test measuring effects on a morphologically heterogeneous, differentiated cell population (bulk cells), whereas the HTCA and methylcellulose assays are longer term (10-15 day) tests in which only a very small fraction of a bulk culture (˜0.1-1%) will grow as colonies. Cells growing anchorage-independently as colonies in a semi-solid matrix are considered to be pluripotent stem cells (Hamburger & Salmon, 1977; Locke et al., 2005; Fiebig et al. 2004). […] Similar observations were made with the breast cancer cell line MCF-7 (shown in FIG. 2B, HTCA IC50=0.04 microM; bulk cell IC50=2 microM).

PC3 cells = experiment: as above; type: cell-based; details: PC3 colonies; read-out: IC50 colony growth in the HTCA
Method: as §2, §3

MCF-7 cells = experiment: as above; type: cell-based
Method: as §2, §3

UXF1138L tumor tissue = experiment: HTCA/clonogenic growth of in vivo treated xenograft tissue; parameters: species or system nude mice; details: for HTCA growth [%]: control set 100%
Method: Upon termination of the experiment, which was when tumors reached a volume of 1.5 cm in diameter (day 28), RHPS4 treated tumor tissue and control tumors were excised, minced and digested using a mixture of collagenase (123 U/ml), DNase (375 U/ml), and hyaluronidase (290 U/ml) in RPMI 1640 medium at 37° C. for 3 hrs. All enzymes were purchased from Roche, Indianapolis Ind.). Primary cultures as well as clonogenic growth assays were prepared from the resulting single cell suspensions. Primary cultures were used for analysis of telomere length. In addition, RHPS4 treated tumors (5 mg/kg/d) and control were propagated into new animals for up to three times. The control mouse group was always derived from untreated tumor fragments, but from the same initial passage as were the RHPS4 treated tumors (FIG. 1B).
as §2

UXF1138L tumors = experiment: atypical mitoses counted in xenograft sections; type: in vivo, nude mice
Method: Upon termination of the experiments, tumors from 3 mice per group were excised and immediately fixed in 10% PBS buffered formalin for 24 hours followed by routine paraffin embedding procedures (Burger et al. 2005).
as §1, with “To enhance contrast, tissues were counterstained with hematoxylin. hTERT-specific staining intensity was documented using a Leica DM4000 microscope and digital camera.” left out

COS(=O)(=O)[O-].Cc1cc2c3c([n+](C)c4ccc(F)cc4c3c1)-c1cc(F)ccc1N2C [RHPS4, 3,11-difluoro-6,8,13-trimethyl-8H-quino[4,3,2-kl]acridinium methosulfate] was tested, and the “nuclear hTERT expression in xenograft tissue” value (hTERT) was “loss of strong nuclear hTERT expression”, the “tumor growth inhibition, maximal extent compared to control” value (UXF1138L xenografts; Passage 3, day 28) was 33% and the “day of optimal Test/Control” value (UXF1138L xenografts; Passage #1) was “(16) day”. For the same compound, the “opt. Test/Control [%]” value (UXF1138L xenografts; Passage #1, median tumor volume, 5 mg/kg p.o.) was 63%, the “day of optimal Test/Control” value (UXF1138L xenografts; Passage #2) was “(7) day” and the “opt. Test/Control [%]” value (UXF1138L xenografts; Passage #2, median tumor volume, 5 mg/kg p.o.) was 100%. For the same compound, the “opt. Test/Control [%]” value (UXF1138L xenografts; Passage #3, median tumor volume, 5 mg/kg p.o., 5 mg/kg) was 67% and 67.7%, the “day of optimal Test/Control” value (UXF1138L xenografts; Passage #4) was “(16) day” and the “opt. Test/Control [%]” value (UXF1138L xenografts; Passage #4, RHPS4 5 mg/kg p.o. twice weekly, Paclitaxel 20 mg/kg i.v.) was 62%. For the same compound, the “antitumor response in words” value (UXF1138L xenografts; Passage #4 UXF1138L xenografts) was “only marginal growth inhibition”, the “oral single agent activity” value (UXF1138L xenografts; any of the 4 passages) was “did not show oral single agent activity” and the IC50 (UXF1138L cells) was 20 nM. The IC50 (PC3 cells) was 30 nM, the “activity in colonies (HTCA) versus whole cell populations” value (MCF-7 cells; MCF-7) was “two log-fold” and the IC50 (MCF-7 cells; MCF-7 colonies, read-out: IC50 colony growth in the HTCA) was 40 nM. For the same compound, the “inhibition of colony forming units in the same tumor tissues” value (UXF1138L tumor tissue; Passage 3) was 54%±6.6, the “HTCA growth [%]” value (UXF1138L tumor tissue; Passage #1) was 83 ± 2.3% and the “HTCA growth [%]” value (UXF1138L tumor tissue; Passage #2) was 93 ± 2.3%. The “HTCA growth [%]” value (UXF1138L tumor tissue; Passage #3) was 54.5 ± 6.6%, the “HTCA growth [%]” value (UXF1138L tumor tissue; Passage #4) was 44 ± 6.4% and the “clonogenicity of RHPS4 treated tumor tissue in soft agar tumor stem cell assay” value (UXF1138L tumor tissue; passages 1-4) was “marked reduction in clonogenicity”. The “mitotic abnormalities compared to vehicle control” value (UXF1138L tumors; 5 mg/kg/d p.o.) was “significant induction of mitotic abnormalities; also recorded: increase in mitotic abnormalities” and the “atypical mitosis, mean number” value (UXF1138L tumors; UXF1138L tumors passage 4, control 0.35) was 1.25±0.19.
